Reference: patent US10485794B2, “Treatment method by combined use of MDM2 inhibitor and BTK inhibitor” (DAIICHI SANKYO COMPANY, LIMITED, priority 2015, dated 2019)

What was measured:
[1] = Body weight change of TMD-8 tumor-bearing mice (Test Example 1); assay type: in vivo, NOD-SCID mouse
Method: ABC-type DLBCL cell line TMD-8 cells were suspended to 1×10^8 cells/mL using phosphate-buffered saline. 0.1 mL of the prepared cell suspension was subcutaneously transplanted to each NOD-SCID mouse (female, 6 weeks old). […] For a combined use group, 25 mg/kg or 50 mg/kg Compound A and 100 mg/kg or 200 mg/kg ibrutinib were orally administered sequentially by forced administration. […] The major axis (mm) and minor axis (mm) of tumor were measured over time using an electronic digital caliper. […] Also, the body weights were measured over time using an automatic balance for small animals, and body weight change % was calculated according to calculation formula (5) shown below to study the influence of drug administration on the body weights. In addition, the results of the last body weight measurement were used in dose calculation. […] *: The tumor volume was calculated according to ½×[Major axis of tumor]×[Minor axis of tumor]×[Minor axis of tumor]. […] BWn: Body weight on day n BWs: Body weight on the start day of administration

[2] = tested on: ABC-type DLBCL cell line TMD-8 cells; test: In vivo effect on subcutaneously transplanted TMD-8 tumor in mice (Test Example 1); set-up: species or system NOD-SCID mouse; conditions: for TGI (%): 29 days after tumor inoculation
Method: ABC-type DLBCL cell line TMD-8 cells were suspended to 1×10^8 cells/mL using phosphate-buffered saline. 0.1 mL of the prepared cell suspension was subcutaneously transplanted to each NOD-SCID mouse (female, 6 weeks old). […] The major axis (mm) and minor axis (mm) of tumor were measured over time using an electronic digital caliper. […] Also, the body weights were measured over time using an automatic balance for small animals, and body weight change % was calculated according to calculation formula (5) shown below to study the influence of drug administration on the body weights. In addition, the results of the last body weight measurement were used in dose calculation. […] A: Average tumor volume of the compound-administered group on the date of assessment (*) B: Average tumor volume of the untreated control group on the date of assessment (*) *: The tumor volume was calculated according to ½×[Major axis of tumor]×[Minor axis of tumor]×[Minor axis of tumor].

[3] = Compound A 25 mg/kg oral, day 18 after tumor inoculation (first administration)
[4] = Compound A 25 mg/kg oral, day 20 after tumor inoculation
[5] = Compound A 25 mg/kg oral, day 22 after tumor inoculation
[6] = Compound A 25 mg/kg oral, day 25 after tumor inoculation
[7] = Compound A 25 mg/kg oral, day 27 after tumor inoculation
[8] = Compound A 25 mg/kg oral, day 29 after tumor inoculation
[9] = Compound A 50 mg/kg oral, day 18 after tumor inoculation (first administration)
[10] = Compound A 50 mg/kg oral, day 20 after tumor inoculation
[11] = Compound A 50 mg/kg oral, day 22 after tumor inoculation
[12] = Compound A 50 mg/kg oral, day 25 after tumor inoculation
[13] = Compound A 50 mg/kg oral, day 27 after tumor inoculation
[14] = Compound A 50 mg/kg oral, day 29 after tumor inoculation
[15] = Ibrutinib 100 mg/kg oral, day 18 after tumor inoculation (first administration)
[16] = Ibrutinib 100 mg/kg oral, day 20 after tumor inoculation
[17] = Ibrutinib 100 mg/kg oral, day 22 after tumor inoculation
[18] = Ibrutinib 100 mg/kg oral, day 25 after tumor inoculation
[19] = Ibrutinib 100 mg/kg oral, day 27 after tumor inoculation
[20] = Ibrutinib 100 mg/kg oral, day 29 after tumor inoculation
[21] = Ibrutinib 200 mg/kg oral, day 18 after tumor inoculation (first administration)
[22] = Ibrutinib 200 mg/kg oral, day 20 after tumor inoculation
[23] = Ibrutinib 200 mg/kg oral, day 22 after tumor inoculation
[24] = Ibrutinib 200 mg/kg oral, day 25 after tumor inoculation
[25] = Ibrutinib 200 mg/kg oral, day 27 after tumor inoculation
[26] = Ibrutinib 200 mg/kg oral, day 29 after tumor inoculation

CC1(C)CCC2(CC1)N[C@@H](C(=O)N[C@@H]1CC[C@@H](C(N)=O)OC1)[C@H](c1ccnc(Cl)c1F)[C@]21C(=O)Nc2cc(Cl)ccc21.Cc1ccc(S(=O)(=O)O)cc1 [Compound A, (3′R,4′S,5′R)—N-[(3R,6S)-6-carbamoyltetrahydro-2H-pyran-3-yl]-6″-chloro-4′-(2-chloro-3-fluoropyridin-4-yl)-4,4-dimethyl-2″-oxo-1″,2″-dihydrodispiro[cyclohexane-1,2′-pyrrolidine-3′,3″-indole]-5′-carboxamide p-toluenesulfonate]
Body weight change (%), average [1, 3]: 0.0% | Body weight change (%), average [1, 4]: 2.1% | Body weight change (%), average [1, 5]: 1.8% | Body weight change (%), average [1, 6]: 1.6% | Body weight change (%), average [1, 7]: 1.3% | Body weight change (%), average [1, 8]: 0.1% | Body weight change (%), average [1, 9]: 0.0% | Body weight change (%), average [1, 10]: −0.8% | Body weight change (%), average [1, 11]: −1.7% | Body weight change (%), average [1, 12]: −2.7% | Body weight change (%), average [1, 13]: −1.0% | Body weight change (%), average [1, 14]: −1.7% | TGI (%) ([2]; Compound A 25 mg/kg oral): 45% | Estimated tumor volume, average [2, 3]: 117 mm^3 | Estimated tumor volume, average [2, 4]: 135 mm^3 | Estimated tumor volume, average [2, 5]: 156 mm^3 | Estimated tumor volume, average [2, 6]: 201 mm^3 | Estimated tumor volume, average [2, 7]: 212 mm^3 | Estimated tumor volume, average [2, 8]: 282 mm^3 | TGI (%) ([2]; Compound A 50 mg/kg oral): 58% | Estimated tumor volume, average [2, 9]: 115 mm^3 | Estimated tumor volume, average [2, 10]: 118 mm^3 | Estimated tumor volume, average [2, 11]: 108 mm^3 | Estimated tumor volume, average [2, 12]: 143 mm^3 | Estimated tumor volume, average [2, 13]: 162 mm^3 | Estimated tumor volume, average [2, 14]: 216 mm^3

C=CC(=O)N1CCC[C@@H](n2nc(-c3ccc(Oc4ccccc4)cc3)c3c(N)ncnc32)C1 [Ibrutinib, (R)-1-(3-(4-amino-3-(4-phenoxyphenyl)-1H-pyrazolo[3,4-d]pyrimidin-1-yl)piperidin-1-yl)prop-2-en-1-one]
Body weight change (%), average [1, 15]: 0.0% | Body weight change (%), average [1, 16]: −0.4% | Body weight change (%), average [1, 17]: −1.1% | Body weight change (%), average [1, 18]: −0.2% | Body weight change (%), average [1, 19]: 0.8% | Body weight change (%), average [1, 20]: −0.1% | Body weight change (%), average [1, 21]: 0.0% | Body weight change (%), average [1, 22]: −1.5% | Body weight change (%), average [1, 23]: −1.2% | Body weight change (%), average [1, 24]: 0.2% | Body weight change (%), average [1, 25]: −0.4% | Body weight change (%), average [1, 26]: −1.6% | TGI (%) ([2]; Ibrutinib 100 mg/kg oral): 58% | Estimated tumor volume, average [2, 15]: 115 mm^3 | Estimated tumor volume, average [2, 16]: 112 mm^3 | Estimated tumor volume, average [2, 17]: 127 mm^3 | Estimated tumor volume, average [2, 18]: 157 mm^3 | Estimated tumor volume, average [2, 19]: 185 mm^3 | Estimated tumor volume, average [2, 20]: 213 mm^3 | TGI (%) ([2]; Ibrutinib 200 mg/kg oral): 67% | Estimated tumor volume, average [2, 21]: 119 mm^3 | Estimated tumor volume, average [2, 22]: 120 mm^3 | Estimated tumor volume, average [2, 23]: 115 mm^3 | Estimated tumor volume, average [2, 24]: 149 mm^3 | Estimated tumor volume, average [2, 25]: 153 mm^3 | Estimated tumor volume, average [2, 26]: 166 mm^3
